Results from article PMC6646405, “A quantitative, high-throughput method identifies protein–glycan interactions via mass spectrometry” (Communications Biology, 2019).

Target: T1, human neuraminidase 2 (NEU2) (Homo sapiens, UniProt Q9Y3R4)
T1 construct: made in house
Assay: Time-resolved CUPRA enzyme kinetics, NEU2
Assay type: biochemical
Conditions: for fraction of OSmod substrate remaining (Fig2d time course): 200 mM aqueous ammonium acetate, pH 7, 25 °C
Protocol: To apply CUPRA in this capacity, two or more substrates of interest are introduced, as their corresponding OS^mod, to a solution containing the desired CAZyme. Changes in substrate concentrations, as well as those of the corresponding enzyme products, are determined from the relative abundances of OS^mod-bound ^UniPproxy measured by time-resolved ESI-MS. Because of the manner in which the substrate and product concentrations are measured, the assay is insensitive to differences in their ESI-MS response factors and, consequently, independent of the nature of the chemical modification catalyzed by the enzyme. As a result, time-resolved CUPRA eliminates the need for calibration curves or internal standards, which are generally required with ESI-MS-based enzyme kinetics assays.
Two glycosyl hydrolases, human neuraminidase 2 (NEU2) and 3 (NEU3), which preferentially cleave α2-3-linked Neu5Ac residues, were used to illustrate the ease with which time-resolved CUPRA can establish substrate specificities. We incubated libraries of the Neu5Ac-containing OS^mod with NEU2 (Fig. 2d) or NEU3 (Fig. 2e) and monitored their conversion to the corresponding desialylated OS^mod products at pH 7 and 25 °C. […] All OS^mod containing terminal α2-3-linked Neu5Ac were substrates of NEU3, with initial rates that are 10–50% that of HMO03. […] Substrates containing branching after the α2-3-linkage were poor substrates for both enzymes. […] We note, however, that previous reports have examined NEU2 and NEU3 activity under more acidic solution conditions. Furthermore, the nature of the substrate aglycone may influence the activity of human neuraminidases.
The time-resolved CUPRA measurements were performed by manually mixing aliquots of stock solutions of NEU2 or NEU3 (final concentration 2 µM), ^UniPproxy (5 µM), substrates (Si, 5 µM each) and CUPRA linker (5 µM), all in 200 mM aqueous ammonium acetate at pH 7 and 25 °C. ESI mass spectra were collected continuously at the rate of 30 scans min^−1 starting at 3 min after mixing. The adduct distributions measured for the ^UniPproxy – CUPRA linker complex ions were used to apply SWARM. The time-dependent fractional abundance of a given substrate (FS,i) (Eq. 12), which was used to represent reaction progress, was calculated from the total Ab of ^UniPproxy bound to Si and corresponding product (Pi), corrected for Si consumed prior to data acquisition.12 FS,i=Ab^UniPproxySi/Ab^UniPproxySi+Ab^UniPproxyPi

T1 sequence (Q9Y3R4 whole entry): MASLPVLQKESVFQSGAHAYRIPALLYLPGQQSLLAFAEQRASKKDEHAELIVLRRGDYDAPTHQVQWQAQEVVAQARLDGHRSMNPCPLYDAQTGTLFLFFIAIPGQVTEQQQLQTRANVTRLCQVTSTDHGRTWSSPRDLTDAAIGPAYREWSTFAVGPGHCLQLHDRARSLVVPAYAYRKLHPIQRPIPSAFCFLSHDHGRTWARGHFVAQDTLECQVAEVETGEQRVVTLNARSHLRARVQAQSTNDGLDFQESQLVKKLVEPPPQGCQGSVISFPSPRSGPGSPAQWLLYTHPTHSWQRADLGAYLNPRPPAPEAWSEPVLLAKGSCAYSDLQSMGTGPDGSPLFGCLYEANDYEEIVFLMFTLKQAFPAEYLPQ

With `CC(=O)N[C@H]1[C@H](O[C@@H]2[C@H](O[C@]3(C(=O)O)C[C@H](O)[C@@H](NC(C)=O)[C@H]([C@H](O)[C@@H](CO)O[C@]4(C(=O)O)C[C@H](O)[C@@H](NC(C)=O)[C@H]([C@H](O)[C@H](O)CO)O4)O3)[C@@H](O)[C@H](O[C@H]3[C@H](O)[C@@H](O)[C@H](N(CCOCCOCCNC(=O)[C@H](Cc4ccccc4)NC(=O)[C@H](Cc4ccccc4)NC(=O)CCCC(=O)NCCc4ccc(S(N)(=O)=O)cc4)C(C)=O)O[C@@H]3CO)O[C@@H]2CO)O[C@H](CO)[C@H](O)[C@@H]1O` [GA10, GalNAcβ1-4(Neu5Acα2-8 Neu5Acα2-3)Galβ1-4Glc-CL] the “relative abundance of OSmod substrate (Fig2d time course)” value (“relative abundance of OSmod substrate” below) (time 0 min) was 0.903, the “relative abundance of OSmod substrate” value (time 1 min) was 0.9038 and the “relative abundance of OSmod substrate” value (time 2 min) was 0.8996. The “relative abundance of OSmod substrate” value (time 3 min) was 0.8888, the “relative abundance of OSmod substrate” value (time 4 min) was 0.9044 and the “relative abundance of OSmod substrate” value (time 7 min) was 0.9102. For the same molecule, the “relative abundance of OSmod substrate” value (time 8 min) was 0.9068, the “relative abundance of OSmod substrate” value (time 9 min) was 0.9088 and the “relative abundance of OSmod substrate” value (time 10 min) was 0.9065. The “relative abundance of OSmod substrate” value (time 11 min) was 0.9097, the “relative abundance of OSmod substrate” value (time 12 min) was 0.9035 and the “relative abundance of OSmod substrate” value (time 13 min) was 0.9029. For the same molecule, the “relative abundance of OSmod substrate” value (time 14 min) was 0.9064, the “relative abundance of OSmod substrate” value (time 15 min) was 0.8954 and the “relative abundance of OSmod substrate” value (time 16 min) was 0.9063. The “relative abundance of OSmod substrate” value (time 17 min) was 0.9123, the “relative abundance of OSmod substrate” value (time 18 min) was 0.9135 and the “relative abundance of OSmod substrate” value (time 19 min) was 0.9061. The “relative abundance of OSmod substrate” value (time 20 min) was 0.9106, the “relative abundance of OSmod substrate” value (time 21 min) was 0.9179 and the “relative abundance of OSmod substrate” value (time 22 min) was 0.9134. The “relative abundance of OSmod substrate” value (time 23 min) was 0.9095, the “relative abundance of OSmod substrate” value (time 24 min) was 0.9035 and the “relative abundance of OSmod substrate” value (time 25 min) was 0.9132. For the same molecule, the “relative abundance of OSmod substrate” value (time 26 min) was 0.907, the “relative abundance of OSmod substrate” value (time 27 min) was 0.9132 and the “relative abundance of OSmod substrate” value (time 28 min) was 0.9116. For the same molecule, the “relative abundance of OSmod substrate” value (time 29 min) was 0.9094, the “relative abundance of OSmod substrate” value (time 30 min) was 0.9084 and the “relative abundance of OSmod substrate” value (time 31 min) was 0.9073. For the same molecule, the “relative abundance of OSmod substrate” value (time 32 min) was 0.915, the “relative abundance of OSmod substrate” value (time 33 min) was 0.9164 and the “relative abundance of OSmod substrate” value (time 34 min) was 0.9136. The “relative abundance of OSmod substrate” value (time 35 min) was 0.9113, the “relative abundance of OSmod substrate” value (time 36 min) was 0.9057 and the “relative abundance of OSmod substrate” value (time 37 min) was 0.9031. The “relative abundance of OSmod substrate” value (time 38 min) was 0.9043, the “relative abundance of OSmod substrate” value (time 39 min) was 0.895 and the “relative abundance of OSmod substrate” value (time 40 min) was 0.8976. For the same molecule, the “relative abundance of OSmod substrate” value (time 41 min) was 0.8827, the “relative abundance of OSmod substrate” value (time 42 min) was 0.9129 and the “relative abundance of OSmod substrate” value (time 43 min) was 0.905. The “relative abundance of OSmod substrate” value (time 44 min) was 0.9072, the “relative abundance of OSmod substrate” value (time 45 min) was 0.9125 and the “relative abundance of OSmod substrate” value (time 46 min) was 0.9034. The “relative abundance of OSmod substrate” value (time 47 min) was 0.9131, the “relative abundance of OSmod substrate” value (time 48 min) was 0.9147 and the “relative abundance of OSmod substrate” value (time 49 min) was 0.9115. For the same molecule, the “relative abundance of OSmod substrate” value (time 50 min) was 0.9161, the “relative abundance of OSmod substrate” value (time 51 min) was 0.9162 and the “relative abundance of OSmod substrate” value (time 52 min) was 0.9166. The “relative abundance of OSmod substrate” value (time 53 min) was 0.9066, the “relative abundance of OSmod substrate” value (time 54 min) was 0.9094 and the “relative abundance of OSmod substrate” value (time 55 min) was 0.9043. For the same molecule, the “relative abundance of OSmod substrate” value (time 56 min) was 0.9097, the “relative abundance of OSmod substrate” value (time 57 min) was 0.9071 and the “relative abundance of OSmod substrate” value (time 58 min) was 0.9137. For the same molecule, the “relative abundance of OSmod substrate” value (time 59 min) was 0.9089, the “relative abundance of OSmod substrate” value (time 60 min) was 0.9084 and the “relative abundance of OSmod substrate” value (time 61 min) was 0.9152. For the same molecule, the “relative abundance of OSmod substrate” value (time 62 min) was 0.9099, the “relative abundance of OSmod substrate” value (time 63 min) was 0.9041 and the “relative abundance of OSmod substrate” value (time 64 min) was 0.9. For the same molecule, the “relative abundance of OSmod substrate” value (time 65 min) was 0.9101, the “relative abundance of OSmod substrate” value (time 66 min) was 0.9104 and the “relative abundance of OSmod substrate” value (time 67 min) was 0.9077. For the same molecule, the “relative abundance of OSmod substrate” value (time 68 min) was 0.9072, the “relative abundance of OSmod substrate” value (time 69 min) was 0.9129 and the “relative abundance of OSmod substrate” value (time 70 min) was 0.9057. The “relative abundance of OSmod substrate” value (time 71 min) was 0.9057, the “relative abundance of OSmod substrate” value (time 72 min) was 0.9132 and the “relative abundance of OSmod substrate” value (time 73 min) was 0.9108. The “relative abundance of OSmod substrate” value (time 74 min) was 0.9071, the “relative abundance of OSmod substrate” value (time 75 min) was 0.9161 and the “relative abundance of OSmod substrate” value (time 76 min) was 0.9095. For the same molecule, the “relative abundance of OSmod substrate” value (time 77 min) was 0.9151, the “relative abundance of OSmod substrate” value (time 78 min) was 0.9122 and the “relative abundance of OSmod substrate” value (time 79 min) was 0.9076. The “relative abundance of OSmod substrate” value (time 80 min) was 0.9134, the “relative abundance of OSmod substrate” value (time 81 min) was 0.9135 and the “relative abundance of OSmod substrate” value (time 82 min) was 0.9162. For the same molecule, the “relative abundance of OSmod substrate” value (time 83 min) was 0.9125, the “relative abundance of OSmod substrate” value (time 84 min) was 0.9098 and the “relative abundance of OSmod substrate” value (time 97 min) was 0.9111. For the same molecule, the “relative abundance of OSmod substrate” value (time 98 min) was 0.9062, the “relative abundance of OSmod substrate” value (time 99 min) was 0.9109 and the “relative abundance of OSmod substrate” value (time 100 min) was 0.915. The “relative abundance of OSmod substrate” value (time 101 min) was 0.9087, the “relative abundance of OSmod substrate” value (time 102 min) was 0.916 and the “relative abundance of OSmod substrate” value (time 103 min) was 0.9129. The “relative abundance of OSmod substrate” value (time 104 min) was 0.9139, the “relative abundance of OSmod substrate” value (time 105 min) was 0.9109 and the “relative abundance of OSmod substrate” value (time 106 min) was 0.908. For the same molecule, the “relative abundance of OSmod substrate” value (time 107 min) was 0.9138, the “relative abundance of OSmod substrate” value (time 108 min) was 0.911 and the “relative abundance of OSmod substrate” value (time 109 min) was 0.9085. The “relative abundance of OSmod substrate” value (time 110 min) was 0.8819, the “relative abundance of OSmod substrate” value (time 111 min) was 0.9092 and the “relative abundance of OSmod substrate” value (time 112 min) was 0.9111. The “relative abundance of OSmod substrate” value (time 113 min) was 0.9127, the “fraction of OSmod substrate remaining (Fig2d time course)” value (“fraction of OSmod substrate remaining” below) (time 114 min, time-resolved CUPRA) was 0.9126 and the “fraction of OSmod substrate remaining” value (time 115 min, time-resolved CUPRA) was 0.9042. The “fraction of OSmod substrate remaining” value (time 116 min, time-resolved CUPRA) was 0.909, the “fraction of OSmod substrate remaining” value (time 117 min, time-resolved CUPRA) was 0.9097 and the “fraction of OSmod substrate remaining” value (time 118 min, time-resolved CUPRA) was 0.9085. The “fraction of OSmod substrate remaining” value (time 119 min, time-resolved CUPRA) was 0.9043, the “fraction of OSmod substrate remaining” value (time 120 min, time-resolved CUPRA) was 0.904 and the “fraction of OSmod substrate remaining” value (time 121 min, time-resolved CUPRA) was 0.904. The “fraction of OSmod substrate remaining” value (time 122 min, time-resolved CUPRA) was 0.904, the “fraction of OSmod substrate remaining” value (time 123 min, time-resolved CUPRA) was 0.904 and the “fraction of OSmod substrate remaining” value (time 124 min, time-resolved CUPRA) was 0.904. For the same molecule, the “Relative activity NEU2” value (time-resolved CUPRA, 200 mM aqueous ammonium acetate pH 7, 25 °C, relative to HMO03) was 0.000.
